Laboratory results reported in a melting point compilation (Tetko et al.; mined from patent text by program, amines drawn as free bases though some values may be those of a salt).

Row | SMILES | melting point
1 | O=C(O)c1ccc(OCCOc2ccccc2)cc1O | 114 to 116 °C
2 | FC(F)c1cc(-c2cccc(C(F)(F)F)c2)nc2c(I)cnn12 | 130 °C
3 | CC(=O)N[C@H]1CC[C@H](CCN2CCN(c3ncc(C)c4occc34)CC2)CC1 | 208 °C
4 | CC(C)(C)CC(C)(C)c1cc(CO)c(O)c(CO)c1 | 76 to 77 °C
5 | Cn1c(C(F)(F)F)ccc(-c2c(F)cc(Cl)c3oc(CO)cc23)c1=O | 145 to 147 °C
6 | CC(C#Cc1cccc(Oc2ccsc2)c1)N(O)C(N)=O (configuration not stated) | 93 to 95 °C
7 | NC(=O)c1ccc(OCCCC(=O)O)cc1 | 162 to 164 °C
8 | NC1(c2ccccc2Cl)C(=O)Nc2ccc(Cl)cc21 (configuration not stated) | 174 to 176 °C
9 | COC(=O)C1CC(C#N)(c2ccc(OC)c3c2OCCO3)CCC1=O (configuration not stated) | 129 to 132 °C
10 | CNC(=O)c1ccc(Nc2cc(-n3ccc(C(F)(F)F)n3)c3ccccc3n2)cc1 | 250 to 252 °C
11 | CC(=O)OC1CSC(Oc2cncc(-c3ccc(F)c(C#N)c3)c2)C(OC(C)=O)C1OC(C)=O (configuration not stated) | 178 °C
12 | Cn1nc(C(F)(F)F)c(CSC2=NOC(C)(CCl)C2)c1O (configuration not stated) | 111 to 112 °C
13 | CCn1cc(-c2ccc(O)cc2)nc1S | 252 °C
14 | CC(=O)OCC(=O)NNC(=O)c1ccc2occ(-c3cccc(OC(F)(F)F)c3)c2c1 | 161 to 162 °C
15 | COC(OC)c1cc(C)nc(NC(=O)NS(=O)(=O)c2ccccc2Cl)n1 | 150 to 153 °C
16 | Cc1cc2c(cc1O)C(C)(C)CC1(CC(C)(C)c3cc(OCC(N)=O)c(C)cc3O1)O2 (configuration not stated) | 220 to 221 °C
17 | Cc1nnc(-c2ccc3ncc(-c4ccc(S(C)=O)cc4)n3c2)o1 (configuration not stated) | 190 °C
18 | Cc1cc(-n2cc(-c3ccc(F)cc3F)nc2C)cc2ccc(=O)[nH]c12 | 262 to 265 °C
19 | C[Si](C)(C)COc1cc([N+](=O)[O-])ccc1N | 87 °C
20 | Cc1ccccc1C(Oc1cc(OCc2ccc3ocnc3c2)ccc1C#N)C(=O)O (racemic) | 189 to 191 °C
21 | Cc1oc(-c2ccccc2)nc1COc1ccc(/C=C/C=C/C#N)cc1 | 120 to 121 °C
22 | COc1cc2c(-c3ccc(Cl)cc3)csc2c(Cl)c1Cl | 190 to 191 °C
23 | CCOC(=O)CNC(=O)N1CS(=O)c2c1cc(C(F)(F)F)cc2[N+](=O)[O-] (configuration not stated) | 150 °C
24 | CS(=O)(=O)NCCCCCCCCCCCn1c2c(c3ccccc3c1=O)C(=O)c1ccccc1-2 | 136 to 137 °C
25 | Clc1nc2nc(Cl)sc2s1 | 180 °C

Row | SMILES | melting point
26 | COC(=O)c1nccnc1Nc1ccc(Cl)cc1[N+](=O)[O-] | 191 to 192 °C
27 | O=C1C(=O)N(C2CCCCC2)C(=O)N1c1ccccc1 | 133 to 140 °C
28 | CC(c1ccc(NC=O)cc1)n1ccnc1 (configuration not stated) | 129 °C
29 | CCC(C)(C)c1ccc(OCCCCc2c(O)c(N)c3ccccc3c2C(N)=O)c(C(C)(C)CC)c1 | 93 to 96 °C
30 | Cc1cc(OC(F)F)ccc1NC(=O)c1cccc(I)c1C(=O)NC(C)C | 207 to 209 °C
31 | Oc1cccc2c1CC[C@H]1[C@@H]2CCN1CCC1CCCCC1 | 130 to 133 °C
32 | O=C(O)C1CCCN1S(=O)(=O)c1ccc(-c2ccccc2)cc1 (configuration not stated) | 133 to 135 °C
33 | Cc1ccc(N(c2ccc(C)cc2)c2ccc(C=C3c4ccccc4C=Cc4ccccc43)cc2)cc1 | 168 to 169 °C
34 | CCCCNS(=O)(=O)c1cc(C(=O)OCC)cc(NCc2ccccc2)c1Oc1ccccc1 | 149 to 150 °C
35 | COC(=O)c1nc(-c2ccc(Cl)cc2)n(-c2ccc(Cl)cc2Cl)n1 | 153 to 154 °C
36 | O=C1c2cccc3cccc(c23)C(=O)N1C1OC(CO)C(O)C(O)C1O (configuration not stated) | 285 to 286 °C
37 | CCC[C@@H]1CCC[C@H](NC(=O)OC(C)(C)C)C(=O)N1 | 114 to 116 °C
38 | Cc1cc(NC(=O)NN(c2ccccc2)c2cccc(C#N)c2)ccc1N1CCOCC1 | 115 to 116 °C
39 | Cc1ccc(S(=O)(=O)OCC2Cc3cccc([N+](=O)[O-])c3O2)cc1 (configuration not stated) | 129 to 131 °C
40 | Cc1noc(NC(=O)N2CCN(c3nc(-c4cccc(Cl)c4Cl)cs3)CC2)c1C | 175 to 176 °C
41 | Nc1c(C(=O)O)ccc(F)c1F | 207 to 208 °C
42 | CC1=C(C#N)S(=O)(=O)c2cc(Cl)ccc2N1 | 297 to 299 °C
43 | Cc1cc2c(cc1C(=O)CBr)C(C)(C)CC(C)C2(C)C (configuration not stated) | 68 °C
44 | COc1cc(N)ccc1-c1sc(C)nc1C | 112 to 115 °C
45 | CC(=O)Nc1cc2c(Nc3ccc(Sc4nccn4C)c(Cl)c3)c(C#N)cnc2cc1N1CCC(N2CCCC2)CC1 | 243 to 255 °C
46 | O=C(Nc1ccc(-n2nc(C(F)(F)F)cc2C2CC2)c(F)c1)c1c(Cl)cncc1Cl | 218 to 223 °C
47 | Cn1cc2c3c(c(F)cc2n1)CCC3=O | 190 to 192 °C
48 | Cn1ncnc1COc1nn2c(-c3ccc(F)cc3)nncc2c1-c1ccccc1F | 191 °C
49 | CCCC1=C(C(=O)OCC)C(c2ccccc2Cl)c2cn(C(=O)Oc3ccccc3)nc2N1 (configuration not stated) | 156 to 157 °C
50 | CN(C(=N)N)c1nccc(Oc2ccc(NC(=O)c3cc(F)cc(N4CCOCC4)c3)c3ccccc23)n1 | 155 to 157 °C

Row | SMILES | melting point
51 | CC(=O)NC(CCCCCCCCCCCCO)(COC(C)=O)COC(C)=O | 75 to 76.5 °C
52 | CCCCOc1ccc(C(=O)c2cccc(C(=O)O)c2)c(O)c1 | 175 °C
53 | COC(=O)c1cn2c3c(c(OS(C)(=O)=O)c(F)cc3c1=O)CCN2C | 247 to 250 °C
54 | COC(=O)C(Sc1ccccc1)c1ccc(Oc2ccc(Cl)cc2)cc1 (configuration not stated) | 64 to 68.5 °C
55 | CCOCc1nc2cnc3cccnc3c2n1Cc1ccccc1 | 118 to 119 °C
56 | Nc1nnc(-c2cccc(OCc3c(Cl)cccc3Cl)c2)c(N)n1 | 190 to 192 °C
57 | O=C(O)CCc1cnoc1-c1cccc(Cl)c1 | 110 to 111 °C
58 | COC(=O)CCCCCNC(=O)C[C@H]1O[C@H](c2cccc(OC)c2OC)c2cc(Cl)ccc2N(CC(C)(C)CO)C1=O | 131 to 132 °C
59 | COc1ccc2c(=O)c3c(OC)cccc3oc2c1OC | 145 to 146 °C
60 | O=C(C=Cc1ccc(Br)cc1)c1cc(Br)ccc1[N+](=O)[O-] | 169 to 190 °C
61 | CCOC(=O)C1=C(C)NC(C)=C2C(=O)Nc3ccccc3C21 (configuration not stated) | 236 to 238 °C
62 | CC(C)(C)OC(=O)NCCC(=O)c1c(Cl)cccc1[Si](C)(C)C | 51 to 52 °C
63 | Cc1ccc2c(N)c(C#N)sc2n1 | 241 to 242 °C
64 | O=C(Nc1cccc2c(=O)cc(-c3nnn[nH]3)oc12)c1ccc2c(c1)CC(CCCc1ccccc1)O2 (configuration not stated) | 234 to 235 °C
65 | COCN1C(C)=C(C(=O)O)C(c2ccccc2C(F)(F)F)C(C(=O)O)=C1C | 172 to 173 °C
66 | COC(=O)N1C[C@@H]2CN(c3ccc(N4C[C@H](CNC(C)=O)OC4=O)cc3F)C[C@@H]2C1 | 128 to 132 °C
67 | CC(=O)OC1CSC(Oc2cccc3c2nc(C)n3C)C(OC(C)=O)C1OC(C)=O (configuration not stated) | 192 °C
68 | COCC1(O)CCN(c2ccc(N3C[C@H](CNC(C)=O)OC3=O)cc2F)CC1 | 80 to 82 °C
69 | Nc1c2c(nc3cc(F)ccc13)CCSC2 | 234 to 237 °C
70 | N#CC1CN1C(=O)c1cc2ccccc2o1 (configuration not stated) | 92 to 94 °C
71 | CC(=O)N1c2ccc([N+](=O)[O-])cc2CC1C(C)(C)C (configuration not stated) | 99 °C
72 | O=C(COc1ccc(Cl)cc1)CS(=O)(=O)C(c1ccc(Cl)cc1)c1ccc(Cl)cc1 | 105 to 107 °C
73 | O=C(CCCCCl)c1cc2c3c(c1)CCC(=O)N3CCC2 | 83 to 84 °C
74 | OC1CCCCC1n1c(Br)nc2cc(Cl)c(Cl)cc21 (configuration not stated) | 186 to 188 °C
75 | COC(=O)CCCc1cc2nc(Cl)ccc2n1S(=O)(=O)c1ccc(C(F)(F)F)cc1 | 99 °C

Row | SMILES | melting point
76 | NC(=O)c1[nH]cnc1OC1OC(COCc2ccccc2)C(OCc2ccccc2)C1OCc1ccccc1 (configuration not stated) | 215 to 216 °C
77 | COc1cccc(COCCCn2ccnc2)c1NC(=O)CC1c2ccccc2Oc2ccccc21 | 155 to 156 °C
78 | O=[N+]([O-])c1ccc(C=Cc2ccc(OCC(O)CO)cc2)cc1 (configuration not stated) | 147 °C
79 | CCCCc1ncc(CNC(C)(Cc2ccccc2)C(=O)O)n1Cc1ccccc1Cl (configuration not stated) | 157 to 159 °C
80 | CS(=O)(=O)Cc1cc(C(O)CNCCCCCCNCC(O)c2ccc(OCc3ccccc3)c(CS(C)(=O)=O)c2)ccc1OCc1ccccc1 (configuration not stated) | 146 to 148 °C
81 | O=C(O)C(=O)CC(=O)c1cccn1CCc1ccccc1 | 168 to 170 °C
82 | Oc1ccc(Cl)cc1C(O)(c1ccccc1)C1CCCCC1 (configuration not stated) | 170 °C
83 | CCc1coc(Cc2ccc([N+](=O)[O-])cc2)n1 | 58 to 59 °C
84 | CCOC(=O)COc1ccc(Cn2c(-c3ccc(OCc4ccccc4)cc3)c(C)c3cc(OCc4ccccc4)ccc32)cc1OC | 120 to 123 °C
85 | COc1cc(-c2csc3c2OCCO3)c(OC)c2c(OC)cc(-c3csc4c3OCCO4)c(OC)c12 | 300 to 303 °C
86 | O=C(c1ccc(-c2ccccc2)cc1)c1ccc([N+](=O)[O-])cc1 | 174 to 176 °C
87 | CC(=O)n1cc(C2=CCN(C)CC2)c2cc(F)ccc21 | 126 to 128 °C
88 | CCCCCCS(=O)(=O)NC(=O)CCc1cc(OC(C)C)nn1Cc1ccc(Cl)cc1Cl | 103 to 106 °C
89 | O=S(=O)(O)c1ccc(NCc2ccccc2F)cc1 | > 270 °C
90 | COc1ccc(-c2c([N+](=O)[O-])cnc3ccc(Cl)cc23)cc1OC | 188 to 190 °C
91 | CCOC(=O)/C(=N\OCC1CCCCC1)c1csc(N)n1 | 107 to 108 °C
92 | CCOC(=O)COc1cccc(-c2nnc(Nc3cccc(Br)c3)s2)c1 | 175 °C
93 | Cc1cc(C(=O)N2Cc3cccn3Cc3ccccc32)cc(C)c1-n1c(C)ccc1C | 104 to 106 °C
94 | CCC(=O)OCOC(=O)C1=C(C)NC(C)=C(C(=O)OC)C1c1cccc(Cl)c1Cl (configuration not stated) | 124 to 126 °C
95 | O=C(O)c1ccn2c1CSC2c1cccnc1 (single isomer, unassigned; (+)) | 154 °C
96 | O=C(NC1CC1)c1ccc(-c2ccc3nnn(Cc4ccc5ncccc5c4)c3n2)cc1F | 193 to 195 °C
97 | CC(c1ncccn1)C(O)(Cn1cncn1)c1ccc(F)cc1F (configuration not stated) | 193 to 195 °C
